Measured values published in PMC11677465, “Development of a PET Probe Targeting Bromodomain and Extra-Terminal Proteins for In Vitro and In Vivo Visualization” (Pharmaceuticals, 2024).
pKd: −log10 of the molar value.

Biological target: T1, BRD4 (Homo sapiens, UniProt O60885)
T1 construct: BD1 (BRD4(1), first bromodomain)
Assay: BROMOscan bromodomain competition binding assay with qPCR readout

- pKd: 6.32
SMILES: COc1cc2c(cc1-c1c(C)nn(C)c1C)ncc1nc(C)n([C@H](C)c3ccccc3)c12 [YL10, (R)-8-methoxy-2-methyl-1-(1-phenylethyl)-7-(1,3,5-trimethyl-1H-pyrazol-4-yl)-1H-imidazo[4,5-c]quinoline]
